Measurements: paper PMC8362065, “Easily Available, Amphiphilic Diiron Cyclopentadienyl Complexes Exhibit in Vitro Anticancer Activity in 2D and 3D Human Cancer Cells through Redox Modulation Triggered by CO Release” (Chemistry (Weinheim an Der Bergstrasse, Germany), 2021)
Read-outs that look alike come from different tables or passages of the source. Marks after values point to notes of the source that are not given here. Blank lines part the entries; values can stand above or below the substance they belong to.

Key:
[1] = biological target: T1, Lysozyme from chicken egg white (Gallus gallus, UniProt P00698); experiment: Reactivity with model protein lysozyme, ESI-MS; conditions: 37 °C; for Reaction with lysozyme: compound/lysozyme 2 : 1, 24 h; for % Lysozyme methylation (alkylation): lysozyme:compound 1 : 2 molar ratio, 24 h, flow injection ESI-MS peak integrals
T1 construct: Lysozyme from chicken egg white (M=14 300 Da, 62971 Sigma‐Aldrich); purchased Sigma-Aldrich 62971; host or cells: chicken egg white (natural source)
T1 sequence (P00698 19-147): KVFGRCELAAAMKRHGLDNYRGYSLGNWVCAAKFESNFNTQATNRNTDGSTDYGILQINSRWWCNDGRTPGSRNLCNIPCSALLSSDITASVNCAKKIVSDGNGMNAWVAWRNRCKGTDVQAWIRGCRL
Protocol: To gain insights into the reactivity of the diiron compounds with possible biomolecular targets, we selected lysozyme, a small model protein often used to test interactions with metal compounds.[36] Following 24 h incubation at 37 °C, diiron compounds/lysozyme solutions (2 : 1 molar ratio) in ammonium acetate were filtered and analysed by ESI‐MS. In all cases, the original organometallic cation was identified as the major Fe‐containing compound in solution (Figures S33‐S40). Concerning the protein scaffold, the only identified adduct from the interaction with [2–3]^+ was the methylated derivative, which was also checked by HPLC separation (Figure S41). The expected diiron counterparts, that is, 1A–H, could not be detected possibly due to their water insolubility. The [lysozyme+Me^+] to [lysozyme] ratios, calculated on extracted ion chromatograms after protein peak reconstruction, are reported in Table 4. […] Methylation is a common post‐translational modification of protein/enzymes (methyltransferase enzymes) but it has also been observed as a result of the interaction of proteins with various electrophiles.[37]
Lysozyme from chicken egg white (M=14 300 Da, 62971 Sigma‐Aldrich) was stored at 4 °C as received. A stock solution was prepared by dissolving the powder protein (125 μM) and NH4OAc (1.25×10^−2 M)[56] in HPLC water and was immediately used. Stock solutions of diiron complexes (c Fe2 =1×10^−3 M) were prepared by dissolving the selected compound in DMSO (0.25 mL) or MeOH (0.7 mL; used only for [4G]BF4), then diluting with HPLC water up to 5.0 mL total volume. Next, aliquots of the Fe (0.50 mL) and lysozyme (2.0 mL) stock solutions were mixed and the final solution (Fe2 200 μM, lysozyme 100 μM, NH4OAc 10 mM; 1 % DMSO) was kept at 37 °C for 24 h. The resulting suspensions were centrifuged (RCF 805, 5 min; Hettich EBA 8G) to separate the orange‐brown precipitate. A blank solution (lysozyme only) was prepared and treated by the same procedure. Next, samples were diluted 1 : 20 (v/v) with a water/MeCN (1 : 1, v/v) solution containing 1 % formic acid and analysed by HPLC‐MS and flow injection MS. For HPLC analyses, elution was conducted with a MeCN/water linear gradient (90 : 10 to 5 : 95 v/v over 60 min), containing 0.05 % trifluoroacetic acid. The following compounds were identified by their MS pattern: [2A]^+ (t R=18.0 min), [2B]^+ (t R=13.8 min), [2C]^+ (t R=18.8 min), [2D]^+ (t R=17.0 min), [2E]^+ (t R=18.3 min), [2F]^+ (t R=9.7 min), [3F]^+ (t R=13.1 min), [4G]^+ (t R=23.0 min), [5H]^+ (t R=24.3 min), lysozyme‐CH3 (t R=21.0 min), lysozyme (t R=21.6 min). In all cases, the starting organometallic cation was identified as the major Fe‐containing compound in solution. Protein peaks pattern were obtained following peak reconstruction. Peak integrals for lysozyme and methyl lysozyme were calculated from the extracted ion chromatograms from the flow injection MS analysis (Table 4).

[2] = tested on: Human pancreatic (PSN‐1) carcinoma cell line; experiment: MTT assay, 2D cell culture; type: cell-based
Protocol: (§1) Compounds [2B]BF4, [2C]CF3SO3, [2D]CF3SO3 and [3F]CF3SO3 were dissolved in water while the other compounds were dissolved in the minimum DMSO amount prior to cell culture testing. A calculated amount of the stock drug DMSO solution was added to the cell culture media to reach a final maximum DMSO concentration of 0.5 %, which had no effects on cell viability.
(§2) Cell cultures. Human colon (HCT‐15), pancreatic (PSN‐1) and breast (MCF‐7) carcinoma cell lines along with human melanoma cells (A375) were obtained from American Type Culture Collection (ATCC, Rockville, MD). Embryonic kidney HEK293 cells were obtained from the European Collection of Cell Cultures (ECACC, Salisbury, UK). Human ovarian 2008 cancer cells were kindly provided by Prof. G. Marverti (Dept. of Biomedical Science of Modena University, Italy). MCF‐7 ADR cells were kindly provided by Prof. N. Colabufo (Dept. Pharmacy, University of Bari, Italy). Cell lines were maintained in the logarithmic phase at 37 °C in a 5 % CO2 atmosphere using the following culture media containing 10 % fetal calf serum (Euroclone, Milan, Italy), antibiotics (50 units/mL penicillin and 50 μg/mL streptomycin) and 2 mM L‐glutamine: i) RPMI‐1640 medium (Euroclone, Milan, Italy) for PSN‐1, 2008, HCT‐15, MCF‐7 and MCF‐7 ADR cells; ii) DMEM for A375 and HEK293 cells.
(§3) MTT assay. The growth inhibitory effect towards tumour cells was evaluated by means of MTT assay as previously described.[57] Briefly, 3–8×10^3 cells/well, dependent upon the growth characteristics of the cell line, were seeded in 96‐well microplates in growth medium (100 μL). After 24 h, the medium was removed and replaced with a fresh one containing the compound to be studied at the appropriate concentration. Triplicate cultures were established for each treatment. After 24 or 72 h, each well was treated with 10 μL of a 5 mg/mL MTT saline solution, and following 5 h of incubation, 100 μL of a sodium dodecyl sulfate (SDS) solution in HCl 0.01 M were added. After an overnight incubation, cell growth inhibition was detected by measuring the absorbance of each well at 570 nm using a Bio‐Rad 680 microplate reader. Mean absorbance for each drug dose was expressed as a percentage of the control untreated well absorbance and plotted against drug concentration. IC50 values, the drug concentrations that reduce the mean absorbance at 570 nm to 50 % of those in the untreated control wells, were calculated by the four‐parameter logistic (4‐PL) model. Evaluation was based on means from at least four independent experiments.

[3] = tested on: Human colon (HCT‐15) carcinoma cell line; experiment: MTT assay, 2D cell culture; type: cell-based; conditions: HCT‐15 cells, 72 h
Protocol: as §1, §2, §3

[4] = tested on: Human breast (MCF‐7) carcinoma cell line; experiment: MTT assay, 2D cell culture; type: cell-based; conditions: MCF‐7 cells, 72 h
Protocol: as §1, §2, §3

[5] = tested on: human melanoma cells (A375); experiment: MTT assay, 2D cell culture; type: cell-based; conditions: 72 h
Protocol: as §1, §2, §3

[6] = tested on: Human ovarian 2008 cancer cells; experiment: MTT assay, 2D cell culture; type: cell-based; conditions: 2008 cells, 72 h
Protocol: as §1, §2, §3

[7] = PSN-1 cells, 24 h, read-out: IC50 (µM) ± SD
[8] = PSN‐1 cells, 72 h, read-out: IC50 (μM)±SD

Substance: [Fe2Cp2(CO)2(μ‐CO){μ‐CNBn2}]X [[5H]CF3SO3]
Reaction with lysozyme [1]: did not react with lysozyme | % Lysozyme methylation (alkylation) [1]: 0 %^[b] | IC50 [2, 7]: 112 ± 2.4 µM | IC50 [2, 8]: 33.7 ± 4.2 µM | IC50 [3]: 32.5 ± 4.8 µM | IC50 [4]: 36.2 ± 6.1 µM | IC50 [5]: 30.8 ± 5.1 µM | IC50 [6]: 37.4 ± 5.2 µM

Substance: [Fe2Cp2(CO)2(μ‐CO){μ‐CNMe(C6H11)}]X [[2C]CF3SO3]
% Lysozyme methylation (alkylation) [1]: 50% | IC50 [2, 7]: 94.2 ± 3.8 µM | IC50 [2, 8]: 15.3 ± 2.7 µM | IC50 [3]: 9.2 ± 1.8 µM | IC50 [4]: 17.3 ± 3.3 µM | IC50 [5]: 16.8 ± 2.1 µM | IC50 [6]: 28.4 ± 5.4 µM

Substance: [Fe2Cp2(CO)2(μ‐CO){μ‐CNMe(4‐C6H4OMe)}]CF3SO3 [[2D]CF3SO3]
% Lysozyme methylation (alkylation) [1]: 31% | IC50 [2, 7]: 35 ± 2 µM | IC50 [2, 8]: 16.2 ± 2.9 µM | IC50 [3]: 15.6 ± 3.5 µM | IC50 [4]: 14.3 ± 2.6 µM | IC50 [5]: 15.5 ± 2.6 µM | IC50 [6]: 21.3 ± 3.1 µM

The remaining lines, values ahead:

% Lysozyme methylation (alkylation) [1]: 47% | IC50 [2, 7]: > 200 µM | IC50 [2, 8]: > 100 µM | IC50 [3]: > 100 µM | IC50 [4]: > 100 µM | IC50 [5]: > 100 µM | IC50 [6]: > 100 µM
Substance: [Fe2Cp2(CO)2(μ‐CO){μ‐CNMe(CH2CHCH2)}]X [[3F]CF3SO3]

% Lysozyme methylation (alkylation) [1]: 45% | IC50 [2, 7]: 144 ± 16 µM | IC50 [2, 8]: 54.3 ± 6.2 µM | IC50 [3]: 69.5 ± 6.7 µM | IC50 [4]: 63.2 ± 5.5 µM | IC50 [5]: 50.8 ± 6.1 µM | IC50 [6]: 55.5 ± 4.8 µM
Substance: [Fe2Cp2(CO)2(μ‐CO){μ‐CNMe(1H‐indol‐6‐yl)}]CF3SO3 [[2A]CF3SO3]

Reaction with lysozyme [1]: did not react with lysozyme | % Lysozyme methylation (alkylation) [1]: 0 %^[b] | IC50 [2, 7]: 69.5 ± 2.1 µM | IC50 [2, 8]: 25.6 ± 4.5 µM | IC50 [3]: 22.9 ± 5.8 µM | IC50 [4]: 21.4 ± 3.6 µM | IC50 [5]: 26.2 ± 5.6 µM | IC50 [6]: 38.8 ± 6.9 µM
Substance: [Fe2Cp2(CO)2(μ‐CO){μ‐CNEt(2‐naphthyl)}]BF4 [[4G]BF4]

% Lysozyme methylation (alkylation) [1]: 49% | IC50 [2, 7]: > 200 µM | IC50 [2, 8]: > 100 µM | IC50 [3]: > 100 µM | IC50 [4]: > 100 µM | IC50 [5]: > 100 µM | IC50 [6]: > 100 µM
Substance: [Fe2Cp2(CO)2(μ‐CO){μ‐CNMe(CH2PO3Et2)}]X [[2B]BF4]
